Source: ChEMBL document CHEMBL4385672, “Design, synthesis and biological evaluation of 2-(3,4-dimethoxyphenyl)-6 (1,2,3,6-tetrahydropyridin-4-yl)imidazo[1,2-a]pyridine analogues as antiproliferative agents” (Bioorg Med Chem Lett, 2019)
The source made the active and inactive calls. No cut-off for these calls is given here.

What was measured:
A549 [1] = assay: Antiproliferative activity against human A549 cells at 10 to 100 uM incubated for 48 hrs by MTT assay; format: functional, cell-based
B16-F10 [2] = assay: Antiproliferative activity against mouse B16F10 cells at 10 to 100 uM incubated for 48 hrs by MTT assay; format: functional, cell-based
HeLa [3] = assay: Antiproliferative activity against human HeLa cells at 10 to 100 uM incubated for 48 hrs by MTT assay; format: functional, cell-based
[4] = Selectivity index, ratio of IC50 for cytotoxicity in HEK293 cells assessed as reduction in cell viability incubated for 48 hrs by MTT assay to IC50 for antiproliferative activity against human A549 cells incubated for 48 hrs by MTT assay; format: toxicity, cell-based; conditions: read-out: Ratio IC50
A549 [5] = assay: Antiproliferative activity against human A549 cells incubated for 48 hrs by MTT assay; format: functional, cell-based; conditions: A549, 48 h
[6] = Selectivity index, ratio of IC50 for cytotoxicity in HEK293 cells assessed as reduction in cell viability incubated for 48 hrs by MTT assay to IC50 for antiproliferative activity against human HeLa cells incubated for 48 hrs by MTT assay; format: toxicity, cell-based; conditions: read-out: Ratio IC50
[7] = Selectivity index, ratio of IC50 for cytotoxicity in HEK293 cells assessed as reduction in cell viability incubated for 48 hrs by MTT assay to IC50 for antiproliferative activity against mouse B16F10 cells incubated for 48 hrs by MTT assay; format: toxicity, cell-based; conditions: read-out: Ratio IC50
B16-F10 [8] = assay: Antiproliferative activity against mouse B16F10 cells incubated for 48 hrs by MTT assay; format: functional, cell-based; conditions: B16-F10, 48 h
HEK293 = assay: Cytotoxicity in HEK293 cells assessed as reduction in cel viability incubated for 48 hrs by MTT assay; format: cell-based; conditions: Homo sapiens, HEK293, 48 h
HeLa [9] = assay: Antiproliferative activity against human HeLa cells incubated for 48 hrs by MTT assay; format: functional, cell-based
B16-F10 [10] = assay: Induction of apoptosis in mouse B16F10 cells assessed as early apoptosis cells level at 7 uM incubated for 48 hrs by Annexin V-FITC and PI staining based flow cytometry (reference value: 0.03 +/- 0.013%); format: functional
B16-F10 [11] = assay: Induction of apoptosis in mouse B16F10 cells assessed as late apoptosis cells level at 7 uM incubated for 48 hrs by Annexin V-FITC and PI staining based flow cytometry (reference value: 0.02 +/- 0.21%); format: functional

IC50 (A549 [5]) [µM]	IC50 (B16-F10 [8]) [µM]	IC50 (HeLa [9]) [µM]	Compound	Activity (A549 [1])	Activity (B16-F10 [2])	Activity (HeLa [3])	selectivity ratio at 48 h [4]	selectivity ratio at 48 h [6]	selectivity ratio at 48 h [7]	IC50 (HEK293) [µM]	Activity (B16-F10 [10]) [%]	Activity (B16-F10 [11]) [%]
–	–	–	COc1ccc(-c2cn3cc(C4=CCN(S(=O)(=O)c5ccc([N+](=O)[O-])cc5)CC4)ccc3n2)cc1OC	Active	Active	Active	–	–	–	–	–	–
4.49	11.1	9.99	COc1ccc(-c2cn3cc(C4=CCN(S(=O)(=O)C5CCCCC5)CC4)ccc3n2)cc1OC	Active	Active	Active	10 to 14	10 to 14	10 to 14	75	–	–
29.1	34.6	28.3	Nc1ccccc1NC(=O)c1cnccn1	–	–	–	–	–	–	–	–	–
–	–	–	COc1ccc(-c2cn3cc(C4=CCN(C(=O)c5ccco5)CC4)ccc3n2)cc1OC	Active	Active	Active	–	–	–	–	–	–
–	–	–	COc1ccc(-c2cn3cc(C4=CCN(C(=O)c5ccc(F)cc5)CC4)ccc3n2)cc1OC	Active	Active	Active	–	–	–	–	–	–
–	–	–	C=CC(=O)N1CC=C(c2ccc3nc(-c4ccc(OC)c(OC)c4)cn3c2)CC1	Active	Active	Active	–	–	–	–	–	–
–	–	–	COc1ccc(-c2cn3cc(C4=CCN(S(=O)(=O)C5CC5)CC4)ccc3n2)cc1OC	Active	Active	Active	–	–	–	–	–	–
6.47	7.69	6.47	COc1ccc(-c2cn3cc(C4=CCN(S(=O)(=O)C5CCCC5)CC4)ccc3n2)cc1OC	Active	Active	Active	10 to 14	10 to 14	10 to 14	102	35.4	55.6
–	–	–	COc1ccc(-c2cn3cc(C4=CCN(C(=O)c5ccccn5)CC4)ccc3n2)cc1OC	Active	Active	Active	–	–	–	–	–	–
–	–	–	COc1ccc(-c2cn3cc(C4=CCN(S(=O)(=O)c5ccc(F)cc5)CC4)ccc3n2)cc1OC	Active	Active	Active	–	–	–	–	–	–
–	–	–	COc1ccc(-c2cn3cc(C4=CCN(S(=O)(=O)c5ccc(C(C)(C)C)cc5)CC4)ccc3n2)cc1OC	Active	Active	Active	–	–	–	–	–	–
–	–	–	COc1ccc(-c2cn3cc(C4=CCN(S(=O)(=O)c5ccc(Br)s5)CC4)ccc3n2)cc1OC	Active	Active	Active	–	–	–	–	–	–
–	–	–	COc1ccc(-c2cn3cc(C4=CCN(S(=O)(=O)c5ccc(C(F)(F)F)cc5)CC4)ccc3n2)cc1OC	Active	Active	Active	–	–	–	–	–	–
–	–	–	COc1ccc(-c2cn3cc(C4=CCN(S(=O)(=O)CC(C)C)CC4)ccc3n2)cc1OC	Active	Active	Active	–	–	–	–	–	–
–	–	–	CCS(=O)(=O)N1CC=C(c2ccc3nc(-c4ccc(OC)c(OC)c4)cn3c2)CC1	Active	Active	Active	–	–	–	–	–	–
–	–	–	CCCS(=O)(=O)N1CC=C(c2ccc3nc(-c4ccc(OC)c(OC)c4)cn3c2)CC1	Active	Active	Active	–	–	–	–	–	–
2.55	8.11	7.95	COc1ccc(-c2cn3cc(C4=CCN(C(=O)c5ccccc5C(F)(F)F)CC4)ccc3n2)cc1OC	Active	Active	Active	10 to 14	10 to 14	10 to 14	82.9	–	–
–	–	–	COc1ccc(-c2cn3cc(C4=CCN(C(=O)COCc5ccccc5)CC4)ccc3n2)cc1OC	Active	Active	Active	–	–	–	–	–	–
–	–	–	COc1ccc(-c2cn3cc(C4=CCN(C(=O)N(C)C)CC4)ccc3n2)cc1OC	Active	Active	Active	–	–	–	–	–	–
7.69	8.08	8.98	COc1ccc(-c2cn3cc(C4=CCN(S(=O)(=O)CCc5ccccc5)CC4)ccc3n2)cc1OC	Active	Active	Active	10 to 14	10 to 14	10 to 14	70.3	–	–

IC50 (A549 [5]) [µM]	IC50 (B16-F10 [8]) [µM]	IC50 (HeLa [9]) [µM]	Compound	Activity (A549 [1])	Activity (B16-F10 [2])	Activity (HeLa [3])	selectivity ratio at 48 h [4]	selectivity ratio at 48 h [6]	selectivity ratio at 48 h [7]	IC50 (HEK293) [µM]	Activity (B16-F10 [10]) [%]	Activity (B16-F10 [11]) [%]
–	–	–	COc1ccc(-c2cn3cc(C4=CCN(S(=O)(=O)c5ccc(Br)cc5)CC4)ccc3n2)cc1OC	Active	Active	Active	–	–	–	–	–	–
7.31	10.9	8.06	COc1ccc(-c2cn3cc(C4=CCN(C(=O)C5CCCCC5)CC4)ccc3n2)cc1OC	Active	Active	Active	10 to 14	10 to 14	10 to 14	72.1	–	–
5.2	19.5	16	COc1ccc(-c2cn3cc(C4=CCN(C(=O)c5cccs5)CC4)ccc3n2)cc1OC	Active	Active	Active	10 to 14	10 to 14	10 to 14	98.1	–	–
–	–	–	COc1ccc(-c2cn3cc(C4=CCN(S(=O)(=O)c5ccc(C)cc5)CC4)ccc3n2)cc1OC	Active	Active	Active	–	–	–	–	–	–
–	–	–	COc1ccc(-c2cn3cc(C4=CCN(C(=O)C(F)(F)F)CC4)ccc3n2)cc1OC	Active	Active	Active	–	–	–	–	–	–
–	–	–	COc1ccc(-c2cn3cc(C4=CCN(C(=O)c5ccc(F)cc5F)CC4)ccc3n2)cc1OC	Active	Active	Active	–	–	–	–	–	–
–	–	–	COc1ccc(-c2cn3cc(C4=CCN(C(=O)c5ccccc5F)CC4)ccc3n2)cc1OC	Active	Active	Active	–	–	–	–	–	–
–	–	–	COc1ccc(-c2cn3cc(C4=CCN(C(=O)c5cccc(F)c5)CC4)ccc3n2)cc1OC	Active	Active	Active	–	–	–	–	–	–
–	–	–	COc1ccc(-c2cn3cc(C4=CCN(S(=O)(=O)c5ccc(Cl)s5)CC4)ccc3n2)cc1OC	Active	Active	Active	–	–	–	–	–	–
9.14	19.4	15.8	COc1ccc(-c2cn3cc(C4=CCN(C(=O)C5CC5)CC4)ccc3n2)cc1OC	Active	Active	Active	10 to 14	10 to 14	10 to 14	77.5	–	–
–	–	–	COc1ccc(-c2cn3cc(C4=CCN(C(C)=O)CC4)ccc3n2)cc1OC	Active	Active	Active	–	–	–	–	–	–
–	–	–	COc1ccc(-c2cn3cc(C4=CCN(C(=O)c5cocn5)CC4)ccc3n2)cc1OC	Active	Active	Active	–	–	–	–	–	–
–	–	–	COc1ccc(S(=O)(=O)N2CC=C(c3ccc4nc(-c5ccc(OC)c(OC)c5)cn4c3)CC2)cc1	Active	Active	Active	–	–	–	–	–	–
–	–	–	COc1ccc(-c2cn3cc(C4=CCN(S(=O)(=O)c5ccc(Cl)cc5)CC4)ccc3n2)cc1OC	Active	Active	Active	–	–	–	–	–	–
–	–	–	COc1ccc(-c2cn3cc(C4=CCN(S(=O)(=O)c5ccccc5[N+](=O)[O-])CC4)ccc3n2)cc1OC	Active	Active	Active	–	–	–	–	–	–
7.66	13.2	12.6	COc1ccc(-c2cn3cc(C4=CCN(S(=O)(=O)c5ccccc5)CC4)ccc3n2)cc1OC	Active	Active	Active	10 to 14	10 to 14	10 to 14	65.6	–	–
–	–	–	COc1ccc(-c2cn3cc(C4=CCNCC4)ccc3n2)cc1OC	Active	Active	Active	–	–	–	–	–	–
–	–	–	COc1ccc(-c2cn3cc(C4=CCN(S(=O)(=O)c5ccc(C(C)=O)cc5)CC4)ccc3n2)cc1OC	Active	Active	Active	–	–	–	–	–	–
–	–	–	COc1ccc(-c2cn3cc(C4=CCN(S(=O)(=O)C(F)(F)F)CC4)ccc3n2)cc1OC	Active	Active	Active	–	–	–	–	–	–
3.69	7.89	4.86	COc1ccc(-c2cn3cc(C4=CCN(C(=O)c5cccc(C(F)(F)F)c5)CC4)ccc3n2)cc1OC	Active	Active	Active	10 to 14	10 to 14	10 to 14	68.4	–	–
